In US10723765B2, “Beta-hairpin peptidomimetics as selective elastase inhibitors” (POLYPHOR AG, priority 2013, dated 2020):
Read-outs that look alike come from different tables or passages of the source. Non-standard residues stand in square brackets, D forms with d. Residues, ends and D or L forms follow the SMILES beside them. *: point of attachment. hArg = N=C(N)NCCCC[C@H](N)C(=O)O; Aad = N[C@@H](CCCC(=O)O)C(=O)O; AllylGly = C=CC[C@H](N)C(=O)O; NHPhenethyl = c1ccc(CCN*)cc1; hLeu = CC(C)CC[C@H](N)C(=O)O

Experiments:
Type in all cases: biochemical
[1] = biological target: T1, porcine pancreatic elastase (Sus scrofa, UniProt P00772); experiment: Inhibition of porcine pancreatic elastase (MeOSuc-AAA-pNA hydrolysis); details: for hNE/PPE selectivity: ratio of PPE IC50 to hNE IC50
T1 construct: purchased Sigma, USA
Experimental: 2.3. Inhibition of Porcine Pancreatic Elastase
The ability of the peptides of the invention to inhibit the hydrolysis activity of porcine pancreatic elastase (Sigma, USA) using the synthetic tripeptidic substrate MeOSuc-AAA-pNA (Bachem, Switzerland) was determined as follows:
(§1) The above substrate (1 mM) and […] porcine pancreatic elastase (15 nM) were incubated at 37° C. with serial dilutions of the peptides (0.5% DMSO final) in assay buffer (50 mM Tris, pH8, 100 mM NaCl, 0.01% Tween20). The release of pNA was followed by monitoring the change in absorbance at 405 nm for 30 minutes. Control assays with the same assay set-up as above, but without peptide, ran linearly. The dose-response data were fitted to the 4-parameter Hill equation providing the IC50 value using Graphpad (Prism 5).

human proteinase 3 = biological target: T2, human proteinase 3 (Homo sapiens, UniProt P24158); experiment: Inhibition of human proteinase 3 (Boc-Ala-Ala-Nva-SBzl); details: for hNE/hPr3 selectivity: ratio of hPr3 IC50 to hNE IC50
T2 construct: purchased Elastin Products Company, USA
T2 sequence (P24158 28-248): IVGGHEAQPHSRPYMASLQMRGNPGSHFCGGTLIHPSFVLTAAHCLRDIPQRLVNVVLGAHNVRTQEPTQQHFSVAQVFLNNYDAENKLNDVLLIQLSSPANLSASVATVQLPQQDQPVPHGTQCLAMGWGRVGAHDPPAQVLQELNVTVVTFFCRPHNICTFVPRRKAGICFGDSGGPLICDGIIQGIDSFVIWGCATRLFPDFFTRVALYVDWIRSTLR
Experimental: 2.4. Inhibition of Human Proteinase 3
The inactivation of human proteinase 3 (Elastin Products Company, USA) by the peptides of the invention using synthetic tripeptidic substrate Boc-Ala-Ala-Nva-SBzl (Elastin Products Company, USA) was determined as follows:
as §1, with “mM), 4,4′-dithiodipyridine (250 μM)” for “mM)”, “proteinase 3 (10” for “porcine pancreatic elastase (15”, “pH7.4, 150” for “pH8, 100”, “reaction process” for “release of pNA”, “340” for “405”

[2] = biological target: T3, human neutrophil elastase (Homo sapiens, UniProt P08246); experiment: Inhibition of human neutrophil elastase (MeOSuc-AAPV-pNA hydrolysis)
T3 construct: purchased Serva Electrophoresis, Germany
T3 sequence (P08246 30-267): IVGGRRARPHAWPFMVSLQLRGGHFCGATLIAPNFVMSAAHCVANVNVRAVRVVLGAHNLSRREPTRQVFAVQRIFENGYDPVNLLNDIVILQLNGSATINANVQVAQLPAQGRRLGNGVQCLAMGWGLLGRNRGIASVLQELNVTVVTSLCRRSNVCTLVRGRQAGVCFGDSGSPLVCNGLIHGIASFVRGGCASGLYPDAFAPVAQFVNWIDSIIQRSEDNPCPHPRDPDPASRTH
Experimental: 2.2. Inhibition of Human Neutrophil Elastase
The ability of the peptides of the invention to inhibit the hydrolysis activity of human neutrophil elastase (Serva Electrophoresis, Germany) using the synthetic tetrapeptidic substrate MeOSuc-AAPV-pNA (Bachem, Switzerland) was determined as follows:
as §1, with “(0.3” for “(1”, “neutrophil” for “porcine pancreatic”, “(10” for “(15”, “(1%” for “(0.5%”, “pH 8, 300” for “pH8, 100”

[3] = 15 nM enzyme, 1 mM substrate, 37° C., pH8, read-out: Porcine pancreatic elastase (PPE) IC50
[4] = 10 nM enzyme, 1 mM substrate, 37° C., pH7.4, read-out: Human proteinase 3 (hPr3) IC50
[5] = 10 nM enzyme, 0.3 mM substrate, 37° C., pH 8, read-out: Human neutrophil elastase (hNE) IC50

T1 sequence (P00772 27-266): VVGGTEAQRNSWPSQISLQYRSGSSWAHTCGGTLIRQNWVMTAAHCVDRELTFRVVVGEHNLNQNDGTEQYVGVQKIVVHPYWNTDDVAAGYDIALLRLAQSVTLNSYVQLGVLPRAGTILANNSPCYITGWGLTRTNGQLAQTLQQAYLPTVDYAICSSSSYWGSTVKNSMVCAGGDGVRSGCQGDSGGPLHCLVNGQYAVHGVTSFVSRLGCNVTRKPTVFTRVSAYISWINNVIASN

Row | IC50 [1, 3] [µM] | hNE/PPE selectivity [1] | IC50 (human proteinase 3; [4]) [µM] | hNE/hPr3 selectivity (human proteinase 3) | IC50 [2, 5] [µM] | Compound | IC50 [1] [µM] | IC50 (human proteinase 3) [µM] | IC50 [2] [µM]
1 | 59 | 3960 | 80.2 | 5383 | 0.0149 | C=CC[C@@H]1NC(=O)[C@H]([C@@H](C)O)NC(=O)[C@H](CCC(=O)O)NC(=O)[C@H](CCCNC(=N)N)NC(=O)[C@@H]2CCCN2C(=O)[C@H]2CCCN2C(=O)[C@H]([C@@H](C)O)NC(=O)[C@H](CCCCN)NC(=O)[C@H](CCC(N)=O)NC(=O)[C@@H]2CCCN2C(=O)[C@@H]2CCCN2C(=O)[C@H]([C@@H](C)CC)NC(=O)[C@H](CO)NC1=O [Example 7, Cyclo(-Arg-Glu-Thr-AllylGly-Ser-Ile-Pro-Pro-Gln-Lys-Thr-^DPro-Pro-)] (cyclo(RET[AllylGly]SIPPQKT[dP]P)) |  |  | 
2 | 45.2 | 2756 | 88.1 | 5372 | 0.0164 | CC[C@H](C)[C@@H]1NC(=O)[C@H](CO)NC(=O)[C@H](C)NC(=O)[C@H]([C@@H](C)O)NC(=O)[C@H](CCC(=O)O)NC(=O)[C@H](CCCNC(=N)N)NC(=O)[C@@H]2CCCN2C(=O)[C@H]2CCCN2C(=O)[C@H](CO)NC(=O)[C@H](CCCCN)NC(=O)[C@H](Cc2ccc(O)cc2)NC(=O)[C@@H]2CCCN2C(=O)[C@@H]2CCCN2C1=O [Example 8, Cyclo(-Arg-Glu-Thr-Ala-Ser-Ile-Pro-Pro-Tyr-Lys-Ser-^DPro-Pro-)] (cyclo(RETASIPPYKS[dP]P)) |  |  | 
3 | 83.4 | 3519 | 70.1 | 2958 | 0.0237 | CC[C@H](C)[C@@H]1NC(=O)[C@H](CO)NC(=O)[C@H](C)NC(=O)[C@H]([C@@H](C)O)NC(=O)[C@H](CCC(=O)O)NC(=O)[C@H](CCCCNC(=N)N)NC(=O)[C@@H]2CCCN2C(=O)[C@H]2CCCN2C(=O)[C@H]([C@@H](C)O)NC(=O)[C@H](CCCCN)NC(=O)[C@H](CCC(N)=O)NC(=O)[C@@H]2CCCN2C(=O)[C@@H]2CCCN2C1=O [Example 9, Cyclo(-hArg-Glu-Thr-Ala-Ser-Ile-Pro-Pro-Gln-Lys-Thr-^DPro-Pro-)] (cyclo([hArg]ETASIPPQKT[dP]P)) |  |  | 
4 | > 100 | >3333 | > 100 | >3333 | 0.03 | CC[C@H](C)[C@@H]1NC(=O)[C@H](CO)NC(=O)[C@H](C)NC(=O)[C@H]([C@@H](C)O)NC(=O)[C@H](CCC(=O)O)NC(=O)[C@H](CCCNC(=N)N)NC(=O)[C@@H]2CCCN2C(=O)[C@H]2CCCN2C(=O)[C@H](CCC(C)C)NC(=O)[C@H](CCCCN)NC(=O)[C@H](CCC(N)=O)NC(=O)[C@@H]2CCCN2C(=O)[C@@H]2CCCN2C1=O [Example 10, Cyclo(-Arg-Glu-Thr-Ala-Ser-Ile-Pro-Pro-Gln-Lys-hLeu-^DPro-Pro-)] (cyclo(RETASIPPQK[hLeu][dP]P)) |  |  | 
5 | > 100 | >8000 | > 100 | >8000 | 0.0125 | CC[C@H](C)[C@@H]1NC(=O)[C@H](CO)NC(=O)[C@H](C)NC(=O)[C@H]([C@@H](C)O)NC(=O)[C@H](CCC(=O)O)NC(=O)[C@H](CCCNC(=N)N)NC(=O)[C@@H]2CCCN2C(=O)[C@H]2CCCN2C(=O)[C@H]([C@@H](C)O)NC(=O)[C@H](CCCCN)NC(=O)[C@H](CCC(N)=O)NC(=O)[C@@H]2CCCN2C(=O)[C@@H]2CCCN2C1=O [Example 11, Cyclo(-Arg-Glu-Thr-Ala-Ser-Ile-Pro-Pro-Gln-Lys-Thr-^DPro-Pro-)] (cyclo(RETASIPPQKT[dP]P)) |  |  | 
6 | > 100 | >10000 | > 100 | >10000 | 0.01 | CC[C@H](C)[C@@H]1NC(=O)[C@H](CO)NC(=O)[C@H](C)NC(=O)[C@H]([C@@H](C)O)NC(=O)[C@H](CCC(=O)O)NC(=O)[C@H](CCCNC(=N)N)NC(=O)[C@@H]2CCCN2C(=O)[C@H]2CCCN2C(=O)[C@H](CCCC(N)=O)NC(=O)[C@H](CCCCN)NC(=O)[C@H](Cc2ccc(O)cc2)NC(=O)[C@@H]2CCCN2C(=O)[C@@H]2CCCN2C1=O [Example 12, Cyclo(-Arg-Glu-Thr-Ala-Ser-Ile-Pro-Pro-Tyr-Lys-hGln-^DPro-Pro-)] (cyclo(RETASIPPYK[Aad](NH2)[dP]P)) |  |  | 
7 | > 100 | >3268 | > 100 | >3268 | 0.0306 | CC[C@H](C)[C@@H]1NC(=O)[C@H](CO)NC(=O)[C@H](C)NC(=O)[C@H]([C@@H](C)O)NC(=O)[C@H](CCC(=O)O)NC(=O)[C@H](CCCNC(=N)N)NC(=O)[C@@H]2CCCN2C(=O)[C@H]2CCCN2C(=O)[C@H]([C@@H](C)O)NC(=O)[C@H](CCCCN)NC(=O)[C@H](Cc2ccc(O)cc2)NC(=O)[C@@H]2CCCN2C(=O)[C@@H]2CCCN2C1=O [Example 13, Cyclo(-Arg-Glu-Thr-Ala-Ser-Ile-Pro-Pro-Tyr-Lys-Thr-^DPro-Pro-)] (cyclo(RETASIPPYKT[dP]P)) |  |  | 
8 | 4.65 | 229 | 77.6 | 3823 | 0.0203 | CC[C@H](C)[C@@H]1NC(=O)[C@H](CO)NC(=O)[C@H](C)NC(=O)[C@H]([C@@H](C)O)NC(=O)[C@H](CCC(=O)O)NC(=O)[C@H](CCCNC(=N)N)NC(=O)[C@@H]2CCCN2C(=O)[C@H]2CCCN2C(=O)[C@H](Cc2c[nH]cn2)NC(=O)[C@H](CCCCN)NC(=O)[C@H](Cc2ccc(O)cc2)NC(=O)[C@@H]2CCCN2C(=O)[C@@H]2CCCN2C1=O [Example 14, Cyclo(-Arg-Glu-Thr-Ala-Ser-Ile-Pro-Pro-Tyr-Lys-His-^DPro-Pro-)] (cyclo(RETASIPPYKH[dP]P)) |  |  | 
9 | > 100 | >3788 | > 100 | >3788 | 0.0264 | CC[C@H](C)[C@@H]1NC(=O)[C@H](CO)NC(=O)[C@H](C)NC(=O)[C@H]([C@@H](C)O)NC(=O)[C@H](C(C)C)NC(=O)[C@H](CCCNC(=N)N)NC(=O)[C@@H]2CCCN2C(=O)[C@H]2CCCN2C(=O)[C@H]([C@@H](C)O)NC(=O)[C@H](CCCCN)NC(=O)[C@H](CCC(N)=O)NC(=O)[C@@H]2CCCN2C(=O)[C@@H]2CCCN2C1=O [Example 16, Cyclo(-Arg-Val-Thr-Ala-Ser-Ile-Pro-Pro-Gln-Lys-Thr-^DPro-Pro-)] (cyclo(RVTASIPPQKT[dP]P)) |  |  | 

Row | Compound | IC50 [1, 3] [µM] | hNE/PPE selectivity [1] | IC50 (human proteinase 3; [4]) [µM] | hNE/hPr3 selectivity (human proteinase 3) | IC50 [2, 5] [µM] | IC50 [1] [µM] | IC50 (human proteinase 3) [µM] | IC50 [2] [µM]
10 | CC[C@H](C)[C@@H]1NC(=O)[C@H](CO)NC(=O)[C@H](C)NC(=O)[C@H]([C@@H](C)O)NC(=O)[C@H](CCC(=O)O)NC(=O)[C@H](CCC(=O)NCCc2ccccc2)NC(=O)[C@@H]2CCCN2C(=O)[C@H]2CCCN2C(=O)[C@H](Cc2ccc(O)cc2)NC(=O)[C@H](CCCCN)NC(=O)[C@H](CCC(N)=O)NC(=O)[C@@H]2CCCN2C(=O)[C@@H]2CCCN2C1=O [Example 15, Cyclo(-Glu(Phenethyl)-Glu-Thr-Ala-Ser-Ile-Pro-Pro-Gln-Lys-Tyr-^DPro-Pro-)] (cyclo(E(NHPhenethyl)ETASIPPQKY[dP]P)) |  | 87 |  | 360 |  | 1.62 | 6.69 | 0.0186
